In US20090088482A1, “Compositions and Methods For Treating Heart Failure” (The Trustees Of Columbia University In The City New York, priority 2003, published 2009):

System: ryanodine receptors (RyR)
Assay: Western analysis of myocardial calcium-handling proteins by densitometry: RyR (Example 2)
Format: in vivo, rats
Conditions: 2 mg/kg/day oral, 8 weeks, untreated CHF 1.6±0.4, Sham 2.8±0.8
Experimental: Chronic heart failure was induced by coronary artery ligation in rats, and was confirmed by echocardiography, three weeks post-surgery. Three groups of rats were studied: (1) Chronic heart failure without clenbuterol (n=7); (2) chronic heart failure+clenbuterol (2 mg/kg/day; n=5); and (3) rats after sham operation (n=11). After 8 weeks of oral clenbuterol therapy, echocardiography and direct hemodynamic monitoring were performed. Rat hearts were then harvested for ex vivo left ventricular pressure-volume relationship (LVPVR) tracings, histologic (trichrome) sections, and molecular assays. Western analysis for myocardial calcium-handling proteins (ryanodine receptors (RyR), SERCA2a, phospholamban, and calcium-sodium exchanger) was assessed by densitometry.

CC(C)(C)NCC(O)c1cc(Cl)c(N)c(Cl)c1 (stereo not shown) [Clen, clenbuterol]
Protein level of RyR: 2.2±0.7
